Like-named read-outs stand apart in the source and are kept apart here.
Tests used:
CB1 receptor = target: T1, CB1 receptor (Rattus norvegicus, UniProt P20272); experiment: Radioligand displacement in whole rat brain (CB1) membrane preparations; format: binding; conditions: Tables 1 and 2
T1 construct: Whole rat brains or dissected regions from live CD rats; tissue Charles River or Pel-Freez Biologicals; host or cells: whole rat brain (CD rats), P2 membrane
How it was run: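 Washed P2 membranes from whole rat brain (ca. 0.2 mg/mL) in 50 mM Tris.HCl, 1 mM EDTA, 3 mM MgCl2, pH 7.4 were incubated with radioligand and compound for 1 h at 30 °C, then filtered. IC50 values came from one- or two-site nonlinear fits and were converted to Ki by Cheng-Prusoff. Duplicates were run across 3–6 experiments.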

[1] = target: T2, G-protein-linked cannabinoid receptors (Rattus norvegicus, UniProt P20272); experiment: GTP-γ-[35S] binding in whole rat brain; format: biochemical; conditions: for Emax: read-out: Emax, GTP-γ-[35S] in Whole Rat Brain; for EC50: inverse agonist/antagonist activity
T2 construct: tissue Charles River or Pel-Freez Biologicals; host or cells: whole rat brain crude membrane homogenate
Description: Cannabinoid receptor-mediated alteration in GTP-γ-[^35S] binding.
Introduction. The purpose of this assay was to characterize the functional activity of lead compounds identified by the radioligand competition binding assays described above. Data from the GTP-γ-[^35S] binding assay was used to determine if a compound was an agonist, antagonist or inverse agonist at G-protein-linked cannabinoid receptors. Agonist binding to a G-protein-linked receptor results in an increased affinity of the G-protein α-subunit for GTP relative to GDP. Eventually, an active αGTP complex forms to complete the stimulus-effector coupling. The α-subunit has intrinsic GTPase activity which generates a free α-subunit which can recombine with the β- and γ-subunits readying the G-protein for another signal transduction cycle. In the current assay, GTP-γ-[^35S] cannot be hydrolyzed by the α-subunit. Thus, the amount of bound GTP-γ-[^35S] is a marker for G-protein activation. In this assay, an agonist increases basal GTP-γ-[^35S] binding, an inverse agonist decreases basal binding and basal binding would be unaffected by an antagonist.
Experimental Design. The specific binding of GTP-γ-[^35S], in the absence of test compound, was termed “basal” activity. Test compounds were characterized as agonist, antagonist, or inverse agonist based on their effect on basal activity. […] The concentrations spanned two orders of magnitude because affinity may not be related to efficacy. […] Effects of the test compounds are reported as the percent change from basal. More thorough dose-response analysis may be run to determine, for example, if a compound is a full or partial agonist.
Methods. […] In a final volume of 0.5 mL, each assay tube contained: 0.02 mg crude membrane homogenate (0.1 mL), 200 μM GDP (0.05 mL; to reduce basal G-protein activity), 0.1 nM GTP-γ-[^35S] (0.05 mL) and several concentrations of test compound (0.05 mL) or an equivalent volume of vehicle (used for determination of total binding). Nonspecific binding was determined in the presence of 100 μM unlabeled GTP-γ-S (0.05 mL). Duplicate samples were incubated for 1 h at 30° C. Since this assay is amenable for use with high throughput screening methods, the binding assays were run using a 96-well plate format. Specific binding was calculated as total binding-nonspecific binding.

[2] = Ki, displacement of 3H-WIN55212-2, whole rat brain membranes, radioligand 3H-WIN55212-2
[3] = read-out: Ki, displacement of 3H-CP55940, whole rat brain membranes, radioligand 3H-CP55940
[4] = read-out: Ki, displacement of 3H-SR141716A, whole rat brain membranes, radioligand 3H-SR141716A
[5] = whole rat brain membranes, radioligand 3H-CP55940
[6] = whole rat brain membranes, radioligand 3H-SR141716A
[7] = whole rat brain membranes, radioligand 3H-WIN55212-2
[8] = whole rat brain membranes, effects reported as percent change from basal
[9] = whole rat brain membranes, read-out: EC50, GTP-γ-[35S] in Whole Rat Brain

T1 sequence (P20272 whole entry): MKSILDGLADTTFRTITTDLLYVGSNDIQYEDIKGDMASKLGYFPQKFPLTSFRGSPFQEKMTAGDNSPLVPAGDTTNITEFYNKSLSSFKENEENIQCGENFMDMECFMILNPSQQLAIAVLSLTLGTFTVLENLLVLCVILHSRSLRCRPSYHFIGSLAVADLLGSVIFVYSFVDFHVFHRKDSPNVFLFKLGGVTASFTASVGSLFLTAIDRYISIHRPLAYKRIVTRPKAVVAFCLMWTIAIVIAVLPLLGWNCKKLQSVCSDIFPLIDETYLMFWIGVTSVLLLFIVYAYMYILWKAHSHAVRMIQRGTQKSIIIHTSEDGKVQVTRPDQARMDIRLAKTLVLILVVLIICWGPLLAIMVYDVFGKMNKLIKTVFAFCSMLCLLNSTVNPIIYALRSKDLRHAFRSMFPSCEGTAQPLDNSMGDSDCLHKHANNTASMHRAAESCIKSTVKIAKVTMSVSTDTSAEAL
T2 sequence (P20272 whole entry): as above

SMILES	Ki (CB1 receptor; [2])	Ki (CB1 receptor; [3])	Ki (CB1 receptor; [4])	Max. Disp. %, 3H-CP55940 (CB1 receptor; [5])	Max. Disp. %, 3H-SR141716A (CB1 receptor; [6])	Max. Disp. %, 3H-WIN55212-2 (CB1 receptor; [7])	Emax [1, 8]	EC50 [1, 9]	Ki (CB1 receptor; Ki, displacement of 3H-CP55940, whole rat brain membranes, radioligand 3H-CP55940)	Ki (CB1 receptor; Ki, displacement of 3H-SR141716A, whole rat brain membranes, radioligand 3H-SR141716A)	EC50 ([1]; EC50, GTP-γ-[35S] in Whole Rat Brain, whole rat brain membranes)	Emax [1]
CCCCNC(=O)c1nn(-c2ccc(Cl)cc2Cl)c(-c2ccc(Cl)cc2)c1C [MF9725-64-17]	32.8 nM	13.4 nM	12.8 nM	91.9%	100%	90.8%	-38.5%	8540 nM				
Cc1c(C(=O)NN2CCOCC2)nn(-c2ccc(Cl)cc2Cl)c1-c1ccc(Cl)cc1 [MF9725-33D]		22.9 nM	21 nM	96.2%	100%		-76.3%	38900 nM				
Cc1c(C(=O)NC(C)C)nn(-c2ccc(Cl)cc2Cl)c1-c1ccc(Cl)cc1 [MF9725-65-11]	36.1 nM	29.4 nM	12.9 nM	88.3%	100%	90.6%	-46.4%	16000 nM				
Cc1c(C(=O)NC2CCCCC2)nn(-c2ccc(Cl)cc2Cl)c1-c1ccc(Cl)cc1 [MF9725-66-11]	2.23 nM	2.46 nM	1.07 nM	96.1%	100%	92.6%	-22.1%	26000 nM				
CCCCCCCNC(=O)c1nn(-c2ccc(Cl)cc2Cl)c(-c2ccc(Cl)cc2)c1C [MF9725-133-25]	28.8 nM			81.7%	97.9%	69.6%			46.2 nM	19 nM	213000 nM	-20%
CCCCCCNC(=O)c1nn(-c2ccc(Cl)cc2Cl)c(-c2ccc(Cl)cc2)c1C [MF9725-132-25]	16.6 nM	18.2 nM	10.7 nM	87.3%	98.6%	77.9%	-13%	29400 nM				
Cc1c(C(=O)NCC(C)C)nn(-c2ccc(Cl)cc2Cl)c1-c1ccc(Cl)cc1 [MF9725-68-10]	46.4 nM	11.5 nM	9.22 nM	96.7%	100%	90.9%	-11%	7540 nM				

Reference: patent US6825209B2, “Compounds having unique CB1 receptor binding selectivity and methods for their production and use” (Research Triangle Institute, priority 2002, dated 2004)
